Here are results for three compounds from article PMC4832243, “Discovery of Potent VEGFR-2 Inhibitors based on Furopyrimidine and Thienopyrimidne Scaffolds as Cancer Targeting Agents” (Scientific Reports, 2016).

Structures are written as SMILES.

One data set has as its target c-Raf (Homo sapiens, UniProt P04049). Description: In vitro multiple-kinase inhibition assay, c-Raf. In kind it is biochemical. As to the method:
(§1) In vitro multiple-kinase inhibition assay. […] Kinase enzymatic activity of the tested compounds was evaluated against a reference kinase inhibitor at 10 μM (Table 2).
(§2) The multiple kinases activity at single dose concentration of 10 μM was performed, c-Kit, c-Raf, c-Src, RET served as the enzyme source. […] Kinase-Glo Plus Luminescence kinase assay kit (Promega#V3772), ADP-Glo Luminescence assay kit was used for c-kit assay (Supplementary). […]
(§3) mM MgCl2, 0.1 mg/ml BSA, 1 mM DTT, 10 µM ATP, Kinase substrate and VEGFR. After the enzymatic reaction, 50 µl of Kinase-Glo Plus Luminescence kinase assay solution (Promega) was added to each reaction and incubate the plate for 5 minutes at room temperature.
(§4) Luminescence signal was measured using a BioTek Synergy 2 microplate reader. VEGFR activity assays were performed in duplicate at each concentration.
(§5) The luminescence data were analyzed using the computer software, Graphpad Prism. The difference between luminescence intensities in the absence of VEGFR (Lut) and in the presence of VEGFR (Luc) was defined as 100 % activity (Lut – Luc). Using luminescence signal (Lu) in the presence of the compound, % activity was calculated as:
(§6) % activity = {(Lut - Lu)/(Lut - Luc)}×100%, where Lu= the luminescence intensity in the […]
(§7) IC50 determination for inhibitor against VEGFR was calculated. The values of % activity versus a series of compound concentrations (1 nM - 10 nM - 100 nM - 1 µM - 10 µM) were then […]
(§8) or Hill coefficient. The IC50 value was determined by the concentration causing a half-maximal […]
(§9) In vitro multiple-kinase inhibition assay
(§10) Luminescence signal was measured using a BioTek Synergy 2 microplate reader […]
(§11) The luminescence data were analyzed using the same computer software and the same protocol

In data set [1] the test system is Ehrlich ascites carcinoma (EAC) solid tumor. Briefly: In vivo anticancer activity, EAC solid tumor murine model. On the set-up: species or system Swiss albino mice. The note with it: for Histopathological examination of EAC tumor sections (necrosis): hematoxylin-eosin, 40x; for TGI (%): once daily for 8 consecutive days. How it is done: Animals. Female Swiss albino mice weighing 15–20 g were used in the present study. They were obtained from the animal breeding laboratory, National Cancer Institute (NCI), Cairo University, Egypt. Animals were kept in our animal facility, faculty of pharmacy, Ain Shams university at 25 ± 2 °C and a relative humidity of 40–45% with alternative day and night cycles of 12 h each. Animals had free access to pellet food and water ad libitum. Standard diet pellets (El-Nasr, Abu Zaabal, Egypt) contained not less than 20% protein, 5% fiber, 3.5% fat, 6.5% ash and a vitamin mixture. Animal care and experiments were conducted in accordance with the protocols approved by the Ethics Research Committee, Faculty of Pharmacy, Ain Shams University, following the Institutional Animal Care and Use Committee guidelines.
Tumor cells preparation and transplantation. Ehrlich ascites carcinoma (EAC) cells were obtained from NCI, Cairo University, Egypt. EAC cells were maintained in the ascitic form in Swiss albino mice by intraperitoneal transplantation of each mouse every 10 days. Ascitic fluid was drawn from tumor-bearing mice at the log phase (7–8th day of tumor bearing) of the tumor cells. The freshly drawn fluid was diluted with ice-cold sterile isotonic saline. 200 μl tumor cell suspension containing 2 × 10^6 tumor cells were then subcutaneously injected in each mouse.
Experimental design. Swiss albino mice were divided into six groups (n = 6 per group).
Evaluation of effectiveness. Tumor growth curve was drawn according to the change in tumor volume from first day of treatment (day 0) till day 7. Longest and shortest diameters of the solid tumor were monitored using a digital vernier caliper. Tumor volume (TV) of each animal was calculated using the following formula: […]
Tumor growth inhibition (TGI) was calculated as follows.
RTV = (Tumor volume at the day of measurement)/Tumor volume at the initial day.
Histopathological Examination
thickness by slidge microtome.
graded ethanol solutions.

Data set [2] is described as follows: Toxicity: vital organs' indices and histopathology in EAC solid tumor bearing mice. The note with it: for Histopathological examination of liver, kidney, heart and brain samples: 10 mg/kg, EAC solid tumor bearing mice (40x); for Brain Index / Heart Index / Kidney Index / Liver Index: mean ± SD (n = 6). In kind it is in vivo, Swiss albino mice.
Data set [3] deals with platelet-derived growth factor receptor-B (PDGFR-B). The note with it: cited from earlier work.
Data set [4] relates to stem cell factor receptor (c-KIT). The note with it: cited from earlier work.
Data set [5] addresses fms-related tyrosine kinase 3 receptor (FLT3). The note with it: cited from earlier work.
In another data set the target is RET tyrosine kinase. Also on record: method as in PMID 16507829. The note with it: cited from earlier work.
The subject of the next data set is wild-type b-Raf. The note with it: read-out: wild-type b-Raf IC50; cited from earlier work.
A further data set deals with VEGFR-2. The note with it: read-out: VEGFR-2 IC50 of pyrrolo[3,2-d]pyrimidine derivative (III); cited from earlier work.
A further data set addresses T1, VEGFR-2 (KDR) (Homo sapiens, UniProt P35968).
T1 construct: purchased BPS Bioscience 40301
Description: In vitro VEGFR-2 tyrosine kinase activity (Kinase-Glo Plus luminescence, BPS Bioscience). The note with it: 5 concentrations 1 nM - 10 μM. The data set is classed as biochemical.

For a further data set, the target named is c-Kit (Homo sapiens, UniProt P10721). Briefly: In vitro multiple-kinase inhibition assay, c-Kit (ADP-Glo). The data set is classed as biochemical. How it is done:
as §1, §2, §3, §4, §5, §6, §7, §8, §9
The assay was performed using the same conditions for VEGFR-2 activity assay (section 5.2.1.1). The assays for c-Kit was an exception, it was performed using ADP-Glo Kinase assay reagents (Promega). It measures kinase activity by quantitating the ADP amount produced from the enzymatic reaction. The luminescent signal from the assay is correlated with the amount of ADP present and is directly correlated with the amount of kinase activity. Other conditions are same to the previous section except the final reaction volume was reduced to 25 µl. After the 40 min kinase reaction at 30 °C, 25 µl of ADP-Glo reagent was added and incubated for 45 min at room temperature followed by another 50 min incubation with 50 µl of Kinase detection mixture.
as §10, §11

The target of another data set is c-Src (Homo sapiens, UniProt P12931). Briefly: In vitro multiple-kinase inhibition assay, c-Src. The data set is classed as biochemical. How it is done:
as §1, §2, §3, §4, §5, §6, §7, §8, §9, §10, §11

Another data set deals with RET (Homo sapiens, UniProt P07949). Description: In vitro multiple-kinase inhibition assay, RET. In kind it is biochemical. As to the method:
as §1, §2, §3, §4, §5, §6, §7, §8, §9, §10, §11

Data set [6] concerns HUVEC umbilical vein endothelial cells. Description: In vitro HUVEC anti-proliferative assay (alamarBlue). The note with it: Homo sapiens, HUVEC proliferation at 10 μM, 72 hours. In kind it is cell-based.
Data set [7] deals with VEGF-induced vascular permeability (Evans Blue extravasation). Briefly: Miles vascular permeability assay. The note with it: in vivo; 10 mg/kg (Fig. 15). Also on record: species or system mice. As to the method:
Miles Vascular Permeability Assay. One to two days prior to the experiment, mice were shaved to expose the skin. Mice were anesthetized with intra-peritoneal injection of Avertin. A sterile solution of 1% Evans Blue (EB) in PBS was prepared and 100 μl was injected IV into the tail vein, using a needle (small gauge, 27–30) at a 10–15 degree angle. The animals were then left for (30–60) min. VEGF (50 μl of 1 ng/μl) and 50 μl of PBS with 0.05% gelatin were injected intradermally using a 30-gauge needle into the skin overlying the back. After 20 min, the animals were sacrificed by cervical dislocation that is recommended to limit significant interference with vascular permeability. The skin was opened, exposed and representative pictures were taken to assess the intensity of EB […]. The Formamide/EB mixture was centrifuged and supernatant absorbance was measured at 600 nm (Shimadzu Spectrophotometer, UV-1601; Japan). extravasation was calculated as ng EB per mg tissue.

Another data set has as its target phospho-VEGFR-2 (Tyr951) (Mus musculus, UniProt P35918). Description: Immunohistochemistry of EAC solid tumor sections, phospho-VEGFR-2. The note with it: oral treatment of EAC-bearing mice.
The subject of another data set is active caspase 3. Description: Immunohistochemistry of EAC solid tumor sections, active caspase 3. The note with it: oral treatment of EAC-bearing mice.
The test system of a further data set is CD31 and CD34 (% MVD). Description: Immunohistochemistry of EAC solid tumor sections, microvessel density (CD31, CD34). The note with it: oral treatment of EAC-bearing mice.

c-Raf, sequence (P04049 whole entry, species assumed): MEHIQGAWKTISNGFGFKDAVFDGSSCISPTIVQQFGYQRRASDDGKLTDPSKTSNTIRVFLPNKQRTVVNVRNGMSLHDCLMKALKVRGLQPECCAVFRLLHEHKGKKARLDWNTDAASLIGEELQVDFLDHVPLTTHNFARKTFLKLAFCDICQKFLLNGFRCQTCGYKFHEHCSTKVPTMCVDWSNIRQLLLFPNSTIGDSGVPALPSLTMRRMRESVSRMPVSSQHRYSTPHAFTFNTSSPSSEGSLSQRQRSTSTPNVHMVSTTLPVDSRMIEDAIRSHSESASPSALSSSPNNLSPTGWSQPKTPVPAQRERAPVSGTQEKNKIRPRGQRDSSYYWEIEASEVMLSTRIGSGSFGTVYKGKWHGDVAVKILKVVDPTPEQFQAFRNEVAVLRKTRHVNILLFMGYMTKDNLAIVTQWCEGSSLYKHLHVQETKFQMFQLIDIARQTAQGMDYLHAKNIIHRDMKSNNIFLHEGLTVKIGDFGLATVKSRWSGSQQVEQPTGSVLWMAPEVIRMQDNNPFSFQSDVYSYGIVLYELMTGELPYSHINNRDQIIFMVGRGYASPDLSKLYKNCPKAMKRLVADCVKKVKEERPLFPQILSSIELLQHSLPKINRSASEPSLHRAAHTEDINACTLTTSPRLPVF
c-Kit, sequence (P10721 26-976): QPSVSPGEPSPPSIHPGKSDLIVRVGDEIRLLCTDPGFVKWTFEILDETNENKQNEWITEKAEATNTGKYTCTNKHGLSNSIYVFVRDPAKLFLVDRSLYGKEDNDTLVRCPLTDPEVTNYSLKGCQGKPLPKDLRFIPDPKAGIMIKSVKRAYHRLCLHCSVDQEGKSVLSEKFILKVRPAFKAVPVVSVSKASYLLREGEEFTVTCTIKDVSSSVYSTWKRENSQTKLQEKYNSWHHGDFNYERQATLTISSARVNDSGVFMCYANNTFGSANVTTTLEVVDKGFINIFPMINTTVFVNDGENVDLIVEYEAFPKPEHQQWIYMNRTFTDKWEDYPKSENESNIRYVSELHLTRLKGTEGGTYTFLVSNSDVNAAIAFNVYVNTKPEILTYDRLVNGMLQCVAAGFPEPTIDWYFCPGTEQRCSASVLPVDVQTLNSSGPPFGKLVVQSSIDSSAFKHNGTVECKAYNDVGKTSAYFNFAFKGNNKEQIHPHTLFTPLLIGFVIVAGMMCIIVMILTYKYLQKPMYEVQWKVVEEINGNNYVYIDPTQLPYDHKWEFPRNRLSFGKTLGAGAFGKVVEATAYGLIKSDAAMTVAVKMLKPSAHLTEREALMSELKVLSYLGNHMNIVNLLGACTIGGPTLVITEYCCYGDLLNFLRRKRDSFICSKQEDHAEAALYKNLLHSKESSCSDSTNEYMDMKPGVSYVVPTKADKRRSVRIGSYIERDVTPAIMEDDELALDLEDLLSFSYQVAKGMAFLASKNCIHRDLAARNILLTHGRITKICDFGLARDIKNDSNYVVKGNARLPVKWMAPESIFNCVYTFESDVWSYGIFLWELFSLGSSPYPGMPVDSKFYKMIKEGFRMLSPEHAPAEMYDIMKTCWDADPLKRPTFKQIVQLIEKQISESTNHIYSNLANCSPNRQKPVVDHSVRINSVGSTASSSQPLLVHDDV
c-Src, sequence (P12931 whole entry, species assumed): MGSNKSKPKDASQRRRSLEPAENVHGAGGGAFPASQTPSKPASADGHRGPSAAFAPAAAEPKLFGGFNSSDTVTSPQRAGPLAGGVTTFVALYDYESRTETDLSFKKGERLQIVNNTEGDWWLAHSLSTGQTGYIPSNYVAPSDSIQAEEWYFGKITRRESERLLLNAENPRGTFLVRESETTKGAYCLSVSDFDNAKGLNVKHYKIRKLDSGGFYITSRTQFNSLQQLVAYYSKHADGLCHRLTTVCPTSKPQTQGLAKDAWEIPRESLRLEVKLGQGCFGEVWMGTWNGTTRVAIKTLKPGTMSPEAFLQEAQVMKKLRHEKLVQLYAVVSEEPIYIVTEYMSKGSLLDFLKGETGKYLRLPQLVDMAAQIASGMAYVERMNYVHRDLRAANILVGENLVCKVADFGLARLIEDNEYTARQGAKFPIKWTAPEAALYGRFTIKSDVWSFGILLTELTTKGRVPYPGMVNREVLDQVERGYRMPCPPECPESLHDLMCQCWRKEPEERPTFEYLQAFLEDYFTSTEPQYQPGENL
T1 sequence (P35968 20-1356): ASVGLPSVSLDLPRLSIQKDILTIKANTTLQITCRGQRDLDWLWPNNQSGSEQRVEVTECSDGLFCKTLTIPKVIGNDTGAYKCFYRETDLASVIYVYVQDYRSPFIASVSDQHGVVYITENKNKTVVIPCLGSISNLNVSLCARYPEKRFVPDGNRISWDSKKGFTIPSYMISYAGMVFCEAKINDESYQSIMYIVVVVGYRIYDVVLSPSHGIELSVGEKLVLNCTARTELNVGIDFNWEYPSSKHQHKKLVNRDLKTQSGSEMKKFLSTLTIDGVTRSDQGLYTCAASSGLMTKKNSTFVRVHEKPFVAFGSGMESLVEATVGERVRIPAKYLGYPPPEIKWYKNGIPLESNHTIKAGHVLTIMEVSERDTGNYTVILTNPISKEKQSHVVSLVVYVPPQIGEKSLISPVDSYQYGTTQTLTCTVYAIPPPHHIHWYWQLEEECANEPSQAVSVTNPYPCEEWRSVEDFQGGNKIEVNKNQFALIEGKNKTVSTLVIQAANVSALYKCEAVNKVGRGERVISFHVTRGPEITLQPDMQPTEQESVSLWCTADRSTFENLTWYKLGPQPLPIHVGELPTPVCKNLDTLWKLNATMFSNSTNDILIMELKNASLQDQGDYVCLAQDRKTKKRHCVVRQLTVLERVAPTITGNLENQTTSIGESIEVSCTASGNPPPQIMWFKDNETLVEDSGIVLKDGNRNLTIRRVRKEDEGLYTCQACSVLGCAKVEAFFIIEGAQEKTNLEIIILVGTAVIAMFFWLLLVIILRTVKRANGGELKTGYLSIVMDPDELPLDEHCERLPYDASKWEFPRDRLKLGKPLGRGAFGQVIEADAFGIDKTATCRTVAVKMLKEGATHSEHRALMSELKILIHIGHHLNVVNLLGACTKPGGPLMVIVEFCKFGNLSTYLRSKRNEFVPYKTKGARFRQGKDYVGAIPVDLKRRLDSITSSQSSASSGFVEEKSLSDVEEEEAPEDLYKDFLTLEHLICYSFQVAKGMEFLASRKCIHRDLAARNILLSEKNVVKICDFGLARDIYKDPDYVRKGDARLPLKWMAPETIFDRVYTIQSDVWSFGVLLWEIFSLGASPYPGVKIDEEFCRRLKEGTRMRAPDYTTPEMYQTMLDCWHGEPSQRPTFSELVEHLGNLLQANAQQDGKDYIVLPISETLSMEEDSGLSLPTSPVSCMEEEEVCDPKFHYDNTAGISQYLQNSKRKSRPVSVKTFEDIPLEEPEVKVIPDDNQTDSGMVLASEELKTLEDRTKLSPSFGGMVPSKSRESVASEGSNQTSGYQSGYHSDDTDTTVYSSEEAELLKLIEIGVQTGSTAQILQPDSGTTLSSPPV
phospho-VEGFR-2 (Tyr951), sequence (P35918 20-1345): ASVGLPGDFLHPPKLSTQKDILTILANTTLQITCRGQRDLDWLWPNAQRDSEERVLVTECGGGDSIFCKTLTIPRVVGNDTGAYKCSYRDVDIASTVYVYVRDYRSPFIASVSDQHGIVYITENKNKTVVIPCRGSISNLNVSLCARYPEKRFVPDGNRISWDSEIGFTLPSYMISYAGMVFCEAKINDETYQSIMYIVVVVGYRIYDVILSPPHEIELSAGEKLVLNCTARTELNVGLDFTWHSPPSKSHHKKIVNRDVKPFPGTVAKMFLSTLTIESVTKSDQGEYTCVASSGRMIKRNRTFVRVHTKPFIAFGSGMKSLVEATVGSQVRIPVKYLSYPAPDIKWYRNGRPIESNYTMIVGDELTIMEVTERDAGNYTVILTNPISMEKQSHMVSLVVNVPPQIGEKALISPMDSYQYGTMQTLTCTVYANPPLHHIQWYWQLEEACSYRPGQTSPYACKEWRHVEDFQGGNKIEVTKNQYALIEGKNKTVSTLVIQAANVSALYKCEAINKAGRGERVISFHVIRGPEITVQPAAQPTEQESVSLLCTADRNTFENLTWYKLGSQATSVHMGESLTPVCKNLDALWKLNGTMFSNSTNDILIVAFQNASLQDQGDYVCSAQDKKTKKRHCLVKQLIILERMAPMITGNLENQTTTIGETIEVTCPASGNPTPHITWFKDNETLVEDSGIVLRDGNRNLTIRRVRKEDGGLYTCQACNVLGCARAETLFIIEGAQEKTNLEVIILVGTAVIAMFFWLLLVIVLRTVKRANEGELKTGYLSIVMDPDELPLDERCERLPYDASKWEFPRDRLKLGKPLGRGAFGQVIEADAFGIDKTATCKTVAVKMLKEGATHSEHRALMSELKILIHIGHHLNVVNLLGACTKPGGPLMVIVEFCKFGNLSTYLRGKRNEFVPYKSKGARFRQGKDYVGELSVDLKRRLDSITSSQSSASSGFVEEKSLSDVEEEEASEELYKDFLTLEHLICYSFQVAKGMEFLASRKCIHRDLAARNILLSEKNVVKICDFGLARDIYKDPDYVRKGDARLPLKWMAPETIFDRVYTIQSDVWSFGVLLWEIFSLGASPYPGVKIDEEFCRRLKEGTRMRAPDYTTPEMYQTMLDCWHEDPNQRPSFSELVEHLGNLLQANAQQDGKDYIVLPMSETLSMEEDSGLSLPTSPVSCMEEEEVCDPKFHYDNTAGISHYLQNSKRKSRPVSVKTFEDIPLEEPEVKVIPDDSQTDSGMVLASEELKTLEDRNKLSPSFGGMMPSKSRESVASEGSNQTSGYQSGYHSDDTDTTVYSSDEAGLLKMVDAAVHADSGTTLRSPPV

As for `CNC(=O)c1cc(Oc2ccc(NC(=O)Nc3ccc(Cl)c(C(F)(F)F)c3)cc2)ccn1` [Sorafenib], at c-Raf (read-out: Inhibition %, c-Raf, reference inhibitor), the inhibition at 1 µM is 92%. The “Histopathological examination of EAC tumor sections (necrosis)” value in [1] (10 mg/kg) is “wide severe necrosis”. For the same compound, the “Histopathological examination of liver, kidney, heart and brain samples” value in [2] was “Degenerative changes were found in the hepatocytes and hippocampus”. The IC50 is 57 nM in [3]; 68 nM in [4]; 33 nM in [5]; 50 nM at RET tyrosine kinase; 25 nM with wild-type b-Raf.

As to `Cn1ccc2ncnc(Oc3ccc(NC(=O)Nc4cccc(C(F)(F)F)c4)c(F)c3)c21` [III], the half-inhibitory concentration (IC50) in the data set with VEGFR-2 is 6.2 nM.

For `Cc1ccc(NC(=O)Nc2ccc(Oc3ncnc4sc5c(c34)CCCC5)cc2)cc1Cl` [Compound 21e], the IC50 on VEGFR-2 (KDR) came to 21 nM. Further, the inhibition at 10 µM on c-Kit worked out at 64%; on c-Raf, 71%; on c-Src, 6%; on RET it was 91%; in data set [6] (read-out: % Cell inhibition) it was 46%. The activity at 10 µM in [6] (read-out: % Cell growth) was determined as 54%. For the same compound, the “Tumor Index” value in [1] (5 mg/kg/day po, 8 consecutive days, mean ± SD, n = 6) turned out to be 0.041 ± 0.007. For the same compound, the figures for the “TGI (%)” value in [1] (5 mg/kg/day po) and in data set [1] (10 mg/kg/day po) were 79.1% and 82.7%, respectively. Further, the “Histopathological examination of EAC tumor sections (necrosis)” value is listed as “moderate diffuse necrosis” in [1] (5 mg/kg) and “severe necrosis in a wide area” in [1] (10 mg/kg). Besides, the “Brain Index” value amounted to 0.0167 ± 0.002 in [2] (5 mg/kg/day po) and 0.0174 ± 0.002 in [2] (10 mg/kg/day po). The “Heart Index” value is 0.0044 ± 0.0013 in data set [2] (5 mg/kg/day po) and 0.0056 ± 0.0009 in data set [2] (10 mg/kg/day po). Moreover, the “Kidney Index” value in data set [2] (5 mg/kg/day po) was 0.012 ± 0.002; in data set [2] (10 mg/kg/day po) it was 0.013 ± 0.002. Also, the “Liver Index” value in data set [2] (5 mg/kg/day po) is 0.048 ± 0.006; in [2] (10 mg/kg/day po) it was 0.057 ± 0.007. The “Histopathological examination of liver, kidney, heart and brain samples” value in data set [2] was “without any histopathological alterations in liver, kidney and brain”. The “Toxicity (overall statement)” value in [2] (oral, 5 and 10 mg/kg/day for 8 consecutive days) is “did not show any noticeable toxicity”. In [7], the “Antiangiogenic effect in Miles vascular permeability assay” value is on record as “confirmed the antiangiogenic effects”. Also, the “VEGFR-2 phosphorylation in EAC solid tumor” value at phospho-VEGFR-2 (Tyr951) is reported as “decreased VEGFR-2 phosphoryaltion”. Besides, the “Active caspase 3 levels in EAC solid tumor” value in the data set on active caspase 3 is reported as “increased active caspase 3 levels”. In addition, the “%MVD in EAC solid tumor” value in the data set with CD31 and CD34 (% MVD) is recorded as “reduction of %MVD”.
